From EP2457441A1, “Insecticide composition” (priority 2010, dated 2012)

Key:
[1] = species and route not given; cited from earlier work
[2] = Toxicity (LD50/DL50); settings: comparison of LD50 values

Compound | DL50 [1] | LD50 [1] [mg/kg] | toxicity relative to common salt [2] | toxicity relative to sugar [2]
COC(C)(C)CCC[C@H](C)C/C=C/C(C)=C/C(=O)OC(C)C [S-METHOPRENE] | above 10000 mg/kg |  |  | 
CCOc1ccc(C(C)(C)COCc2cccc(Oc3ccccc3)c2)cc1 [ETOFENPROX] |  | 42880 | about 15 times less | two times less
common salt |  | 3000 |  | 
